Experimental data from patent US20090275583A1, “ANTIVIRAL COMPOUNDS AND USE THEREOF” (Myriad Genetics, Incorporated, priority 2006, published 2009).

What was measured:
[1] = test system: HIV-1 laboratory strain, NL4-3; assay: MT-4 cytoprotection assay; type: cell-based; conditions: Human immunodeficiency virus 1, NL43, MT4, 96 h; MT-4 cells, four days incubation, WST-1 readout; read-out: MT4 EC50
Procedure, shortened: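 MT-4 cells mock- or batch-infected with NL4-3 (MOI 0.0005) for 2 h, washed, then cultured 4 days with increasing compound concentrations. Viability read by WST-1 tetrazolium reduction: cytoprotection in infected cells, toxicity in mock-infected cells.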

HIV-1NL4-3 = assay: P4-MAGI assay; type: cell-based; conditions: Human immunodeficiency virus 1, 24 h, P4 cells, 24 hour incubation, β-galactosidase expression; read-out: P4-MAGI IC50
Procedure, shortened: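 Cytotoxicity (TC50, 50% growth inhibition) came from WST-1 in uninfected cells. For antiviral activity, compound at rising concentrations was added immediately after HIV-1NL4-3 inoculation (MOI 1, DEAE-Dextran) of P4 cells, CD4+ HeLa cells expressing β-galactosidase from a minimal HIV-1 LTR upon infection.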

| SMILES | EC50 [1] | IC50 (HIV-1NL4-3) |
| --- | --- | --- |
| C=C(C)[C@@H]1CC[C@]2(C(=O)NCCc3cccc(C(=O)NCc4ccc(C(=O)N[C@@H](C(=O)O)[C@H](C)N5CCN(C)CC5)cc4)c3)CC[C@]3(C)C(CCC4[C@@]5(C)CC[C@H](O)C(C)(C)C5CC[C@]43C)C12 (stereo partly drawn) [Example 177] | 92 nM | 8 nM |
| C=C(C)[C@@H]1CC[C@]2(C(=O)NCCc3cccc(C(=O)NCc4ccc(C(=O)N5CC(O)C[C@@H]5C(=O)O)cc4)c3)CC[C@]3(C)C(CCC4[C@@]5(C)CC[C@H](O)C(C)(C)C5CC[C@]43C)C12 (stereo partly drawn) [Example 178] | 35 nM | 21 nM |
| C=C(C)[C@@H]1CC[C@]2(C(=O)NCCc3cccc(C(=O)NCc4ccc(N(C)C)cc4)c3)CC[C@]3(C)C(CCC4[C@@]5(C)CC[C@H](O)C(C)(C)C5CC[C@]43C)C12 (stereo partly drawn) [Example 179] | 98 nM | 72 nM |
| C=C(C)[C@@H]1CC[C@]2(C(=O)NCCc3cccc(C(=O)NCc4ccc(N)cc4)c3)CC[C@]3(C)C(CCC4[C@@]5(C)CC[C@H](O)C(C)(C)C5CC[C@]43C)C12 (stereo partly drawn) [Example 181] | 28 nM | 19 nM |
| C=C(C)[C@@H]1CC[C@]2(C(=O)NCCc3cccc(C(=O)NCc4ccc(C(=O)N5CCN(C(=O)OC(C)(C)C)C(C(=O)OC)C5)cc4)c3)CC[C@]3(C)C(CCC4[C@@]5(C)CC[C@H](O)C(C)(C)C5CC[C@]43C)C12 (stereo partly drawn) [Example 183] | 108 nM | 44 nM |
| C=C(C)[C@@H]1CC[C@]2(C(=O)NCCc3cccc(C(=O)NCc4ccc(C(=O)NC(Cc5c[nH]cn5)C(=O)O)cc4)c3)CC[C@]3(C)C(CCC4[C@@]5(C)CC[C@H](O)C(C)(C)C5CC[C@]43C)C12 (stereo partly drawn) [Example 184] | 830 nM | 104 nM |
| C=C(C)[C@@H]1CC[C@]2(C(=O)NCCc3cccc(C(=O)NCc4ccc(C(=O)NC(CO)C(=O)O)cc4)c3)CC[C@]3(C)C(CCC4[C@@]5(C)CC[C@H](O)C(C)(C)C5CC[C@]43C)C12 (stereo partly drawn) [Example 185] | 36 nM | 14 nM |
| C=C(C)[C@@H]1CC[C@]2(C(=O)NCc3cc(C(=O)NCc4cccc(C(=O)O)c4F)ccc3F)CC[C@]3(C)C(CCC4[C@@]5(C)CC[C@H](O)C(C)(C)C5CC[C@]43C)C12 (stereo partly drawn) [Example 186] | 830 nM | 120 nM |
| C=C(C)[C@@H]1CC[C@]2(C(=O)NCCc3cccc(C(=O)NCc4ccc(C(=O)NCc5ncccc5C(=O)OC)cc4)c3)CC[C@]3(C)C(CCC4[C@@]5(C)CC[C@H](O)C(C)(C)C5CC[C@]43C)C12 (stereo partly drawn) [Example 187] | 40 nM | 8 nM |
| C=C(C)[C@@H]1CC[C@]2(C(=O)NCCc3cccc(C(=O)NCc4ccc(O)cc4)c3)CC[C@]3(C)C(CCC4[C@@]5(C)CC[C@H](O)C(C)(C)C5CC[C@]43C)C12 (stereo partly drawn) [Example 188] | 37 nM | 12 nM |
| C=C(C)[C@@H]1CC[C@]2(C(=O)NCCc3cccc(C(=O)NCc4ccc(C(=O)NCc5cccnc5C(=O)OC)cc4)c3)CC[C@]3(C)C(CCC4[C@@]5(C)CC[C@H](O)C(C)(C)C5CC[C@]43C)C12 (stereo partly drawn) [Example 189] | 25 nM | 4 nM |
| C=C(C)[C@@H]1CC[C@]2(C(=O)NCCc3cccc(C(=O)NCc4ccc(NCCCN5CCOCC5)cc4)c3)CC[C@]3(C)C(CCC4[C@@]5(C)CC[C@H](O)C(C)(C)C5CC[C@]43C)C12 (stereo partly drawn) [Example 191] | 16 nM | 29 nM |
| C=C(C)[C@@H]1CC[C@]2(C(=O)NCCc3cccc(C(=O)NCc4ccc(C(=O)NCCN5CCNCC5)cc4)c3)CC[C@]3(C)C(CCC4[C@@]5(C)CC[C@H](O)C(C)(C)C5CC[C@]43C)C12 (stereo partly drawn) [Example 192] | 7 nM | 7 nM |
| C=C(C)[C@@H]1CC[C@]2(C(=O)NCCc3cccc(C(=O)NCc4ccc(C(=O)NCc5cccnc5C(=O)O)cc4)c3)CC[C@]3(C)C(CCC4[C@@]5(C)CC[C@H](O)C(C)(C)C5CC[C@]43C)C12 (stereo partly drawn) [Example 193] | 2 nM | 9 nM |
| C=C(C)[C@@H]1CC[C@]2(C(=O)NCCc3cccc(C(=O)NCc4ccc(C(=O)N5CCNC(C(=O)O)C5)cc4)c3)CC[C@]3(C)C(CCC4[C@@]5(C)CC[C@H](O)C(C)(C)C5CC[C@]43C)C12 (stereo partly drawn) [Example 194] | 16 nM | 18 nM |
| C=C(C)[C@@H]1CC[C@]2(C(=O)NCCc3cccc(C(=O)NCc4ccc(C(=O)NCc5ncccc5C(=O)O)cc4)c3)CC[C@]3(C)C(CCC4[C@@]5(C)CC[C@H](O)C(C)(C)C5CC[C@]43C)C12 (stereo partly drawn) [Example 195] | 5 nM | 6 nM |
| C=C(C)[C@@H]1CC[C@]2(C(=O)NCCc3cccc(C(=O)NCc4ccc(OCCCN5CCOCC5)cc4)c3)CC[C@]3(C)C(CCC4[C@@]5(C)CC[C@H](O)C(C)(C)C5CC[C@]43C)C12 (stereo partly drawn) [Example 196] | 12.5 nM | 13 nM |

| SMILES | EC50 [1] | IC50 (HIV-1NL4-3) |
| --- | --- | --- |
| C=C(C)[C@@H]1CC[C@]2(C(=O)NCCc3cccc(C(=O)NCc4ccccc4O)c3)CC[C@]3(C)C(CCC4[C@@]5(C)CC[C@H](O)C(C)(C)C5CC[C@]43C)C12 (stereo partly drawn) [Example 198] | 468 nM | 57.6 nM |
| C=C(C)[C@@H]1CC[C@]2(C(=O)NCCc3cccc(C(=O)NCc4ccccc4)c3)CC[C@]3(C)C(CCC4[C@@]5(C)CC[C@H](O)C(C)(C)C5CC[C@]43C)C12 (stereo partly drawn) [Example 199] | 297 nM | 53.2 nM |
| C=C(C)[C@@H]1CC[C@]2(C(=O)NCCc3cccc(C(=O)NCc4ccccc4OC)c3)CC[C@]3(C)C(CCC4[C@@]5(C)CC[C@H](O)C(C)(C)C5CC[C@]43C)C12 (stereo partly drawn) [Example 200] | 759 nM | 76.3 nM |
| C=C(C)[C@@H]1CC[C@]2(C(=O)NCCc3cccc(C(=O)NCc4ccc(C(=O)OC)cn4)c3)CC[C@]3(C)C(CCC4[C@@]5(C)CCC(=O)C(C)(C)C5CC[C@]43C)C12 (stereo partly drawn) [Example 201] | 15.5 nM | 28.8 nM |
| C=C(C)[C@@H]1CC[C@]2(C(=O)NCCc3cccc(C(=O)NCc4ccc(C(=O)O)cn4)c3)CC[C@]3(C)C(CCC4[C@@]5(C)CCC(=O)C(C)(C)C5CC[C@]43C)C12 (stereo partly drawn) [Example 202] | 20.5 nM | 22.2 nM |
| C=C(C)[C@@H]1CC[C@]2(C(=O)NCCc3cccc(C(=O)NCc4cccc(COCc5cccc(C(=O)O)c5)c4)c3)CC[C@]3(C)C(CCC4[C@@]5(C)CC[C@H](O)C(C)(C)C5CC[C@]43C)C12 (stereo partly drawn) [Example 208] | 42.5 nM | 28.9 nM |
| C=C(C)[C@@H]1CC[C@]2(C(=O)NCCc3cccc(C(=O)NCC4CCC(C(=O)OC)CC4)c3)CC[C@]3(C)C(CCC4[C@@]5(C)CC[C@H](O)C(C)(C)C5CC[C@]43C)C12 (stereo partly drawn) [Example 210] | 33 nM | 30.8 nM |
| C=C(C)[C@@H]1CC[C@]2(C(=O)NCCc3cccc(C(=O)NCC4CCC(C(=O)O)CC4)c3)CC[C@]3(C)C(CCC4[C@@]5(C)CC[C@H](O)C(C)(C)C5CC[C@]43C)C12 (stereo partly drawn) [Example 211] | 19 nM | 11.2 nM |
| C=C(C)[C@@H]1CC[C@]2(C(=O)NCCc3cccc(C(=O)NCC4(CC(=O)O)CCCCC4)c3)CC[C@]3(C)C(CCC4[C@@]5(C)CC[C@H](O)C(C)(C)C5CC[C@]43C)C12 (stereo partly drawn) [Example 212] | 96.5 nM | 85 nM |
| C=C(C)[C@@H]1CC[C@]2(C(=O)NCCc3cccc(C(=O)N[C@H](C)C4CCC(C(=O)OC)CC4)c3)CC[C@]3(C)C(CCC4[C@@]5(C)CC[C@H](O)C(C)(C)C5CC[C@]43C)C12 (stereo partly drawn) [Example 213] | 22 nM | 38.9 nM |
| C=C(C)[C@@H]1CC[C@]2(C(=O)NCCc3cccc(C(=O)NCC4OC5OC(C)(C)O[C@@H]5[C@@H](O)[C@@H]4O)c3)CC[C@]3(C)C(CCC4[C@@]5(C)CC[C@H](O)C(C)(C)C5CC[C@]43C)C12 (stereo partly drawn) [Example 214] | 214 nM | 200 nM |
| C=C(C)[C@@H]1CC[C@]2(C(=O)NCCc3cccc(C(=O)N[C@H](C)C4CCC(C(=O)O)CC4)c3)CC[C@]3(C)C(CCC4[C@@]5(C)CC[C@H](O)C(C)(C)C5CC[C@]43C)C12 (stereo partly drawn) [Example 215] | 11.5 nM | 22 nM |
| C=C(C)[C@@H]1CC[C@]2(C(=O)NCCc3cccc(-c4nnc(Cc5ccc(C#N)cc5)o4)c3)CC[C@]3(C)C(CCC4[C@@]5(C)CC[C@H](O)C(C)(C)C5CC[C@]43C)C12 (stereo partly drawn) [Example 216] | 2700 nM | 66.5 nM |
| C=C(C)[C@@H]1CC[C@]2(C(=O)NCCc3cccc(-c4nnc(Cc5ccc(-c6nn[nH]n6)cc5)o4)c3)CC[C@]3(C)C(CCC4[C@@]5(C)CC[C@H](O)C(C)(C)C5CC[C@]43C)C12 (stereo partly drawn) [Example 217] | 49 nM | 87 nM |
| C=C(C)[C@@H]1CC[C@]2(C(=O)NCCc3cccc(C(=O)NCc4ccc(C(=O)N[C@H](CC(=O)OC)C(=O)OC)cn4)c3)CC[C@]3(C)C(CCC4[C@@]5(C)CC[C@H](O)C(C)(C)C5CC[C@]43C)C12 (stereo partly drawn) [Example 221] | 35 nM | 9 nM |
| C=C(C)[C@@H]1CC[C@]2(C(=O)NCCc3cccc(C(=O)NCc4ccc(C(=O)N[C@H](CC(=O)O)C(=O)O)cn4)c3)CC[C@]3(C)C(CCC4[C@@]5(C)CC[C@H](O)C(C)(C)C5CC[C@]43C)C12 (stereo partly drawn) [Example 222] | 727 nM | 65.7 nM |
